Laboratory results taken from patent US11980674B2, “Imaging of metastatic or recurrent cancer” (Blue Earth Diagnostics Limited, priority 2020, dated 2024).

What was measured:
[1] = test system: known prostate carcinoma recurrence; assay: PET time activity curves (FIG. 3); type: in vivo, human; conditions: for time at which plateau was reached: remained constant throughout the imaging period
Method: Regions in marrow (ilium), muscle (gluteus), and bladder reached a plateau at 4.5 minutes that remained constant throughout the imaging period.

[2] = human, in vivo
Method: FIGS. 1a and 1b show accumulation of FACBC in the Virchow's node when the FACBC is injected into the left arm.
In some embodiments, the right arm may be preferred as stasis in the axillary vein upon injection in the left arm may be misinterpreted as a metastatic lymph node called Virchow's node, which is located in the left supraclavicular fossa (the area above the left clavicle, or collar bone). For example, FIGS. 1a and 1b show accumulation of FACBC in the Virchow's node when the FACBC is injected into the left arm.

In the case of `N[C@]1(C(=O)O)C[C@@H](F)C1` [fluciclovine, anti-1-amino-3-^18F-fluorocyclobutane-1-carboxylic acid], the “time at which plateau was reached” value ([1]; bladder) is reported as 4.5 min, the “time of maximum uptake” value ([1]; known prostate carcinoma recurrence) is reported as 4.5 min and the “plateau of uptake lasting to” value ([1]; known prostate carcinoma recurrence, after maximum at 4.5 minutes) is reported as 30 min. For the same compound, the gradual clearance ([1]; known prostate carcinoma recurrence, after plateau, out to 60 minutes) was 9 %/min, the “time at which plateau was reached” value ([1]; marrow (ilium)) was 4.5 min and the “time at which plateau was reached” value ([1]; muscle (gluteus)) was 4.5 min. For the same compound, the “standardized uptake value (SUV)” value [2] was > 200.
